This note sets out measurements from the supplement of paper PMC10307832.

Holding throughout (assay): relative viability (nuclei count vs DMSO), 5 days (fraction); higher = more cells survive
Compound in the assay “QS11 + Olaparib”: C1CC2=C(C1)C=C(C=C2)OC3=NC(=C4C(=N3)N(C=N4)CC5=CC=C(C=C5)C6=CC=CC=C6)N[C@@H](CC7=CC=CC=C7)CO [QS11] + O=C(c1cc(Cc2n[nH]c(=O)c3ccccc23)ccc1F)N1CCN(C(=O)C2CC2)CC1 [Olaparib] (partner 8 µM)
An outline of the steps: (§1)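 Lung cancer cell lines were seeded in 1536-well plates and dosed by pin tool the next day, with either a single drug or a fixed anchor-drug dose combined with five library-drug doses (not always all listed) spaced in √10 steps. Five days later, one step fixed the cells and stained their nuclei (final 0.05% Triton X-100, 1% formaldehyde, 1 ug/ml Hoechst), and nuclei were counted on 4× images. Relative viability is the nuclei count in treated wells divided by the count in vehicle wells, and each value is the median of duplicate plates.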

Compound in the assay “AZ628 + Dasatinib”: CC1=C(C=C(C=C1)NC(=O)C2=CC(=CC=C2)C(C)(C)C#N)NC3=CC4=C(C=C3)N=CN(C4=O)C [AZ628] + Cc1nc(Nc2ncc(C(=O)Nc3c(C)cccc3Cl)s2)cc(N2CCN(CCO)CC2)n1 [Dasatinib] (partner 0.075 µM)
In short, it runs like this: as §1

Compound in the assay “AZ628 + Olaparib”: CC1=C(C=C(C=C1)NC(=O)C2=CC(=CC=C2)C(C)(C)C#N)NC3=CC4=C(C=C3)N=CN(C4=O)C [AZ628] + O=C(c1cc(Cc2n[nH]c(=O)c3ccccc23)ccc1F)N1CCN(C(=O)C2CC2)CC1 [Olaparib] (partner 8 µM)
An outline of the steps: as §1

Compound in assay [1]: C[As](C)SC[C@H](NC(=O)CC[C@H](N)C(=O)O)C(=O)NCC(=O)O [Darinaparsin] + Nc1nc2[nH]cc(CCc3ccc(C(=O)N[C@@H](CCC(=O)O)C(=O)O)cc3)c2c(=O)[nH]1 [Pemetrexed] (partner 0.2 µM)
An outline of the steps: as §1

Take LCLC-97TM1: the relative viability with QS11 + Olaparib (first compound 0.253 µM) was 0.428; with QS11 + Olaparib (first compound 2.53 µM) it was 0.495; in the assay with QS11 + Olaparib (first compound 8 µM), 0.464; with AZ628 + Dasatinib (first compound 0.08 µM), 0.769; with AZ628 + Dasatinib (first compound 0.253 µM), 0.791; with AZ628 + Dasatinib (first compound 0.8 µM) it was 0.508. Moreover, the relative viability came to 0.477 with AZ628 + Dasatinib (first compound 2.53 µM); 0.168 with AZ628 + Dasatinib (first compound 8 µM); 0.517 in the assay with AZ628 + Olaparib (first compound 0.08 µM); 0.371 with AZ628 + Olaparib (first compound 0.253 µM); 0.356 with AZ628 + Olaparib (first compound 0.8 µM); 0.289 in the assay with AZ628 + Olaparib (first compound 2.53 µM). The relative viability with AZ628 + Olaparib (first compound 8 µM) stood at 0.202; in assay [1] (first compound 0.08 µM), 0.162; in assay [1] (first compound 0.8 µM) it was 0.177; in assay [1] (first compound 2.53 µM) it was 0.166; in assay [1] (first compound 8 µM) it was 0.185.
